Measured values as given in US8778871B2 (Takeda Pharmaceutical Company Limited, priority 2004, dated 2014).
Non-standard residues stand in square brackets, D forms with d. Residues, ends and D or L forms follow the SMILES beside them. No end group written: not given here. *: point of attachment. 1Nal = N[C@@H](Cc1cccc2ccccc12)C(=O)O; 2Nal = N[C@@H](Cc1ccc2ccccc2c1)C(=O)O; Arg(Me) = CNC(=N)NCCC[C@H](N)C(=O)O; Abu = CC[C@H](N)C(=O)O; Bz = O=C(c1ccccc1)*; azaGly = NNC(=O)O

Tests used:
Type in all cases: cell-based
hOT7T175 [1] = target: T1, hOT7T175 (Homo sapiens, UniProt Q969F8, L364H); experiment: Intracellular Ca ion level-increasing activity using FLIPR (180 seconds; specific activity to Metastin (1-54)); conditions: hOT7T175/CHO, relative to Metastin (1-54) = 1
T1 construct: expressed in transfected cells

hOT7T175 [2] = target: T2, hOT7T175 (Homo sapiens, UniProt Q969F8); experiment: as above; conditions: hOT7T175/CHO, change in intracellular calcium ion level for 180 seconds, Tables 21-23
T2 construct: expressed in transfected cells

hOT7T175 [3] = target: T1, hOT7T175; conditions: hOT7T175/CHO, FLIPR, evaluation for 40 seconds after initiation of the reaction
Procedure: The intracellular Ca ion level-increasing activity was measured using FLIPR as in TEST EXAMPLE 2.

T1 sequence (Q969F8 whole entry L364H): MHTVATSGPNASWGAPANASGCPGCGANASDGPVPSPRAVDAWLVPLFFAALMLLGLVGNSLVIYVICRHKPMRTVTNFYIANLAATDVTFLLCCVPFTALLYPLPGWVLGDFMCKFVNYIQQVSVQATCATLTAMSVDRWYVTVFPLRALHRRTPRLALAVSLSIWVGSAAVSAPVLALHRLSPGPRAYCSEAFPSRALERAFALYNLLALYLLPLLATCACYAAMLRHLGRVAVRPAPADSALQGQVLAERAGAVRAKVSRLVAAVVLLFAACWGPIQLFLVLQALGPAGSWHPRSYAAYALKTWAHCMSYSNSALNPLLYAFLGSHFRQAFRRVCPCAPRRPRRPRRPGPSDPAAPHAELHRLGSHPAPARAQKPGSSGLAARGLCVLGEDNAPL
T2 sequence (Q969F8 whole entry L364H): as above

| Molecule | Specific Act. (intracellular Ca ion level-increasing activity, specific activity to Metastin (1-54)) (hOT7T175 [1]) | intracellular Ca ion level-increasing activity [specific activity to Metastin (1-54)] (hOT7T175 [2]) | Specific Act. (EC50/MS10 EC50) (hOT7T175 [3]) |
| --- | --- | --- | --- |
| H-YNWNSFSLRF-NH2 [Compound No. 101] | 10 | – | – |
| CC(C)C[C@H](NC(=O)CNC(=O)[C@H](Cc1ccccc1)NC(=O)[C@H](CO)NC(=O)[C@H](CC(N)=O)NC(=O)[C@H](Cc1c[nH]c2ccccc12)NC(=O)[C@H](CC(N)=O)NC(=O)[C@@H](N)Cc1ccc(O)cc1)C(=O)N[C@@H](CCCNC(=N)N)C(=O)N[C@@H](Cc1ccc(Cl)cc1)C(N)=O [Compound No. 130] | 10 | – | – |
| CNC(=N)NCCC[C@H](NC(=O)[C@H](CC(C)C)NC(=O)CNC(=O)[C@H](Cc1ccccc1)NC(=O)[C@H](CO)NC(=O)[C@H](CC(N)=O)NC(=O)[C@@H](Cc1c[nH]c2ccccc12)NC(=O)[C@@H](CC(N)=O)NC(=O)[C@H](N)Cc1ccc(O)cc1)C(=O)N[C@@H](Cc1ccccc1)C(N)=O [Compound No. 231, D-Tyr-D-Asn-D-Trp-Asn-Ser-Phe-Gly-Leu-Arg(Me)-Phe-NH2] | 1 | – | – |
| CNC(=N)NCCC[C@H](NC(=O)[C@H](CC(C)C)NC(=O)CNC(=O)[C@H](Cc1ccccc1)NC(=O)[C@H](CO)NC(=O)[C@H](CC(N)=O)NC(=O)[C@@H](NC(=O)[C@H](CC(N)=O)NC(=O)[C@H](N)Cc1ccc(O)cc1)C(C)C)C(=O)N[C@@H](Cc1ccccc1)C(N)=O [Compound No. 229] (H-[dY]NVNSFGL[Arg(Me)]F-NH2) | 1 | – | – |
| CNC(=N)NCCC[C@H](NC(=O)[C@H](CC(C)C)NC(=O)NNC(=O)[C@H](Cc1ccccc1)NC(=O)[C@H](CO)NC(=O)[C@H](CC(N)=O)NC(=O)[C@H](Cc1ccc2ccccc2c1)NC(=O)[C@H](N)Cc1ccc(O)cc1)C(=O)N[C@@H](Cc1ccccc1)C(N)=O [Compound No. 255, D-Tyr-Nal(2)-Asn-Ser-Phe-AzaGly-Leu-Arg(Me)-Phe-NH2] (H-[dY][2Nal]NSF[azaGly]L[Arg(Me)]F-NH2) | 1 | – | – |
| CNC(=N)NCCC[C@H](NC(=O)[C@H](CC(C)C)NC(=O)CNC(=O)[C@H](Cc1ccccc1)NC(=O)[C@H](CO)NC(=O)[C@H](CC(N)=O)NC(=O)[C@@H](Cc1c[nH]c2ccccc12)NC(=O)[C@H](CC(N)=O)NC(=O)[C@H](N)Cc1ccc(O)cc1)C(=O)N[C@@H](Cc1ccccc1)C(N)=O [Compound No. 142, D-Tyr-Asn-D-Trp-Asn-Ser-Phe-Gly-Leu-Arg(Me)-Phe-NH2] | 2 | – | – |
| CCNC(=N)NCCC[C@H](NC(=O)[C@H](CC(C)C)NC(=O)CNC(=O)[C@H](Cc1ccccc1)NC(=O)[C@H](CO)NC(=O)[C@H](CC(N)=O)NC(=O)[C@H](Cc1c[nH]c2ccccc12)NC(=O)[C@H](CC(N)=O)NC(=O)[C@H](N)Cc1ccc(O)cc1)C(=O)N[C@@H](Cc1ccccc1)C(N)=O [Compound No. 192] | 1 | – | – |
| CC(C)C[C@H](NC(=O)CNC(=O)[C@H](Cc1ccccc1)NC(=O)[C@H](CO)NC(=O)[C@H](CC(N)=O)NC(=O)[C@H](Cc1c[nH]c2ccccc12)NC(=O)[C@H](CC(N)=O)NC(=O)[C@@H](N)Cc1ccc(O)cc1)C(=O)N[C@@H](CCCNC(=N)N)C(=O)N[C@@H](Cc1ccccc1F)C(N)=O [Compound No. 19] | 2 | – | – |
| CC(C)C[C@H](NC(=O)CNC(=O)[C@H](Cc1ccccc1)NC(=O)[C@H](CO)NC(=O)[C@H](CC(N)=O)NC(=O)[C@H](Cc1cn(C=O)c2ccccc12)NC(=O)[C@H](CC(N)=O)NC(=O)[C@@H](N)Cc1ccc(O)cc1)C(=O)N[C@@H](CCCNC(=N)N)C(=O)N[C@@H](Cc1ccc(C#N)cc1)C(N)=O [Compound No. 78, Tyr-Asn-Trp(For)-Asn-Ser-Phe-Gly-Leu-Arg-Phe(4CN)-NH2] | 10 | – | – |
| CNC(=N)NCCC[C@H](NC(=O)[C@H](CC(C)C)NC(=O)NNC(=O)[C@H](Cc1ccccc1)NC(=O)[C@H](CO)NC(=O)[C@H](CC(N)=O)NC(=O)[C@H](Cc1cccc2ccccc12)NC(=O)[C@H](CC(N)=O)NC(=O)[C@H](N)Cc1ccc(O)cc1)C(=O)N[C@@H](Cc1ccccc1)C(N)=O [Compound No. 245, D-Tyr-Asn-Nal(1)-Asn-Ser-Phe-AzaGly-Leu-Arg(Me)-Phe-NH2] (H-[dY]N[1Nal]NSF[azaGly]L[Arg(Me)]F-NH2) | 1 | – | – |
| D-Tyr-Asn-Trp-Ser-Ser-Phe-Gly-Leu-Arg(Me)-Phe-NH2 ([dY]NWSSFGL[Arg(Me)]F-NH2) [Compound No. 207] | ½ | – | – |
| CC(C)C[C@H](NC(=O)CNC(=O)[C@H](Cc1ccccc1)NC(=O)[C@H](CO)NC(=O)[C@H](CC(N)=O)NC(=O)[C@H](Cc1c[nH]c2ccccc12)NC(=O)[C@H](CC(N)=O)NC(=O)[C@@H](N)Cc1ccc(O)cc1)C(=O)N[C@@H](CCCNC(=N)N)C(=O)N[C@@H](Cc1ccc(Cl)c(Cl)c1)C(N)=O [Compound No. 199] | 3 | – | – |
| CNC(=N)NCCC[C@H](NC(=O)[C@H](CC(C)C)NC(=O)NNC(=O)[C@H](Cc1ccccc1)NC(=O)[C@H](CO)NC(=O)[C@H](CC(N)=O)NC(=O)[C@H](Cc1c[nH]c2ccccc12)NC(=O)[C@@H](CC(N)=O)NC(=O)[C@H](N)Cc1ccc(O)cc1)C(=O)N[C@@H](Cc1ccccc1)C(N)=O [Compound No. 237, D-Tyr-D-Asn-Trp-Asn-Ser-Phe-AzaGly-Leu-Arg(Me)-Phe-NH2] | 3 | – | – |
| CNC(=N)NCCC[C@H](NC(=O)[C@H](CC(C)C)NC(=O)CNC(=O)[C@H](Cc1ccccc1)NC(=O)[C@H](CO)NC(=O)[C@H](CC(N)=O)NC(=O)[C@H](Cc1c[nH]c2ccccc12)NC(=O)[C@H](CCC(N)=O)NC(=O)[C@H](N)Cc1ccc(O)cc1)C(=O)N[C@@H](Cc1ccccc1)C(N)=O [Compound No. 214] (H-[dY]QWNSFGL[Arg(Me)]F-NH2) | 10 | – | – |
| CNC(=N)NCCC[C@H](NC(=O)[C@H](CC(C)C)NC(=O)CNC(=O)[C@H](Cc1ccccc1)NC(=O)[C@H](CO)NC(=O)[C@H](CC(N)=O)NC(=O)[C@H](Cc1c[nH]c2ccccc12)NC(=O)[C@@H](NC(=O)[C@H](N)Cc1ccc(O)cc1)[C@@H](C)O)C(=O)N[C@@H](Cc1ccccc1)C(N)=O [Compound No. 215] (H-[dY]TWNSFGL[Arg(Me)]F-NH2) | 10 | – | – |
| CNC(=N)NCCC[C@H](NC(=O)[C@H](CC(C)C)NC(=O)CNC(=O)[C@H](Cc1ccccc1)NC(=O)[C@H](CO)NC(=O)[C@H](CC(N)=O)NC(=O)[C@@H](Cc1c[nH]c2ccccc12)NC(=O)[C@H](N)CC(N)=O)C(=O)N[C@@H](Cc1ccccc1)C(N)=O [Compound No. 225, D-Asn-D-Trp-Asn-Ser-Phe-Gly-Leu-Arg(Me)-Phe-NH2] (H-[dN][dW]NSFGL[Arg(Me)]F-NH2) | 1 | – | – |
| CNC(=N)NCCC[C@H](NC(=O)[C@@H](NC(=O)CNC(=O)[C@H](Cc1ccccc1)NC(=O)[C@H](CO)NC(=O)[C@H](CC(N)=O)NC(=O)[C@H](Cc1c[nH]c2ccccc12)NC(=O)[C@H](CC(N)=O)NC(=O)[C@H](N)Cc1ccc(O)cc1)C(C)C)C(=O)N[C@@H](Cc1ccccc1)C(N)=O [Compound No. 213] (H-[dY]NWNSFGV[Arg(Me)]F-NH2) | 2 | – | – |
| CC(C)C[C@H](NC(=O)CNC(=O)[C@H](Cc1ccccc1)NC(=O)[C@H](CO)NC(=O)[C@H](CC(N)=O)NC(=O)[C@H](Cc1c[nH]c2ccccc12)NC(=O)[C@H](CC(N)=O)NC(=O)[C@@H](N)Cc1ccc(O)cc1)C(=O)N[C@@H](CCCNC(=N)N)C(=O)N[C@@H](Cc1ccc(F)c(F)c1)C(N)=O [Compound No. 198] | 10 | – | – |
| [dY][dW][Abu]SF[azaGly]L[Arg(Me)]W-NH2 [Compound No. 513] | – | 20 | 0.4 |
| [dY][dW]ATF[azaGly]L[Arg(Me)]W-NH2 [Compound No. 511] | – | 10 | 0.5 |
| CNC(=N)NCCC[C@H](NC(=O)[C@H](CC(C)C)NC(=O)NNC(=O)[C@H](Cc1ccccc1)NC(=O)[C@@H](NC(=O)[C@H](CC(N)=O)NC(=O)[C@H](Cc1c[nH]c2ccccc12)NC(=O)[C@H](CC(N)=O)NC(=O)[C@H](N)Cc1ccc(O)cc1)[C@@H](C)O)C(=O)N[C@@H](Cc1ccccc1)C(N)=O [Compound No. 297, D-Tyr-Asn-Trp-Asn-Thr-Phe-AzaGly-Leu-Arg(Me)-Phe-NH2] (H-[dY]NWNTF[azaGly]L[Arg(Me)]F-NH2) | – | 1 | 5.5 |
| Pyrimidine-4-carbonyl-Phe-AzaGly-Leu-Arg(Me)-Trp-NH2 [Compound No. 475] | – | 3 | 4.2 |
| 1-Azetidinecarbonyl-Phe-AzaGly-Leu-Arg(Me)-Trp-NH2 [Compound No. 468] | – | 1 | 5.2 |
| Bz-F[azaGly]L[Arg(Me)]F-NH2 [Compound No. 341] | – | 2 | 2.8 |
